Source: patent US8598173B2, “1-[(6,7-substituted alkoxyquinoxalinyl)aminocarbonyl]-4-(hetero)arylpiperazine derivatives for treating tumors” (Korea Research Institute of Chemical Technology, priority 2004, dated 2013)
Like-named read-outs stand apart in the source and are kept apart here.

How the values were obtained:
Format in all cases: cell-based, human
Details in all cases: SRB method, 96 hours incubation
MDA-MB-231 (breast) = experiment: Cell growth inhibition assay (SRB), MDA-MB-231
Experimental: (§1) OVCAR-3, MCF-7, PC3, HepG2, A549, HT-29 and MKN-45 were grown in RPMI1640 medium (Invitrogen, Carlsbad, Calif.) supplemented with 10% fetal bovine serum (‘FBS’), 1 mM sodium pyruvate, 10 mM HEPES and 100 U/ml penicillin and […] streptomycin (‘P/S’). MDA-MB-231, HCT116, UMRC2, Caki-1, PANC-1 and HEK293 cells were maintained in Dulbecco's modified Eagle's medium (‘DMEM’, Invitrogen) supplemented with 10% FBS, P/S, 10 mM HEPES and 2 mM L-glutamine. HUVEC was maintained in M199 supplemented with basic fibroblast growth factor (‘bFGF’) […] and FBS 20%. All cells were incubated at 37° C. under humidified 5% CO2.
(§2) The growth inhibition of the substituted quinoxalin-piperazine compounds against a variety of human tumor cells was evaluated. The relative importance of particular substituent groups on the compounds was also studied. The substituted piperazine derivative compounds, prepared as described above, were tested, along with DMSO as a control.
(§3) The growth inhibition assay of various compounds against human tumor cell lines was performed using the Sulforhodamine B (‘SRB’) method (Skehan et al., J. National Cancer Institute, 1990, 82, 1107-1112). […] Triplicate wells were used for each treatment. The cells were incubated with the various compounds for 96 hours at 37° C. in a humidified 5% CO2 atmosphere. After 96-hour incubation, cells were fixed with 10% trichloroacetic acid (‘TCA’), incubated for 1 hour at 4° C., and washed 3 times with tap water. Subsequently cells were stained with 0.4% sulforhodamine B in 1% acetic acid for 30 minutes, washed 4 times with 1% acetic acid, and air-dried again. After 5 minutes agitation in 10 mM Tris solution, the absorbance of each well was measured at 530 nm using Benchmark Plus Microplate reader (Bio-Rad Laboratories, Hercules, Calif.).
(§4) To translate the OD530 values into the number of live cells in each well, the OD530 values were compared to those on standard OD530-versus-cell number curves generated for each cell line. The percent survival was calculated using the formula: % Survival=live cell number[test]/live cell number[control]×100
(§5) The IC50 values were calculated by non-linear regression analysis.

UMRC2 (kidney) = experiment: Cell growth inhibition assay (SRB), UMRC2
Experimental: as §1, §2, §3, §4, §5

PANC-1 (pancreas) = experiment: Cell growth inhibition assay (SRB), PANC-1
Experimental: as §1, §2, §3, §4, §5

[1] = MDA-MB-231, read-out: Inhibition of cell growth (IC50, μM) by quinoxaline-piperazine compounds against human cancer cell lines: MDA-MB-231
[2] = UMRC2, read-out: Inhibition of cell growth (IC50, μM) by quinoxaline-piperazine compounds against human cancer cell lines: UMRC2
[3] = PANC-1, read-out: Inhibition of cell growth (IC50, μM) by quinoxaline-piperazine compounds against human cancer cell lines: PANC-1
[4] = Homo sapiens, MDA-MB-231, read-out: Inhibition of cell growth (IC50, μM) by quinoxaline-piperazine compounds against human cancer cell lines: MDA-MB-231
[5] = Homo sapiens, UMRC2, read-out: Inhibition of cell growth (IC50, μM) by quinoxaline-piperazine compounds against human cancer cell lines: UMRC2
[6] = Homo sapiens, PANC-1, read-out: Inhibition of cell growth (IC50, μM) by quinoxaline-piperazine compounds against human cancer cell lines: PANC-1
[7] = MDA-MB-231 (breast), read-out: IC50, MDA-MB-231
[8] = UMRC2 (kidney), read-out: IC50, UMRC2
[9] = PANC-1 (pancreas), read-out: IC50, PANC-1
[10] = Homo sapiens, MDA-MB-231 (breast), read-out: IC50, MDA-MB-231
[11] = Homo sapiens, UMRC2 (kidney), read-out: IC50, UMRC2
[12] = Homo sapiens, PANC-1 (pancreas), read-out: IC50, PANC-1

| SMILES | IC50 (MDA-MB-231 (breast); [4]) [µM] | IC50 (UMRC2 (kidney); [5]) [µM] | IC50 (PANC-1 (pancreas); [6]) [µM] | IC50 (MDA-MB-231 (breast); [10]) [µM] | IC50 (UMRC2 (kidney); [11]) [µM] | other results |
| --- | --- | --- | --- | --- | --- | --- |
| COc1nc2ccc(F)cc2nc1NC(=O)N1CCN(c2cccc(C(F)(F)F)c2)CC1 [Compound 11, 1-[(6-Fluoro-2-methoxyquinoxalin-3-yl)aminocarbonyl]-4-(3-trifluorotolyl)piperazine] | – | – | – | – | – | IC50 (MDA-MB-231 (breast); [1]): 0.25 µM; IC50 (UMRC2 (kidney); [2]): 0.39 µM; IC50 (PANC-1 (pancreas); [3]): 1.06 µM |
| COc1cccc(N2CCN(C(=O)Nc3nc4cc(Cl)ccc4nc3OC)CC2)c1 [Compound 24, 1-[(6-Chloro-2-methoxyquinoxalin-3-yl)aminocarbonyl]-4-(3-methoxyphenyl)piperazine] | 0.41 | 0.68 | 1.66 | – | – | – |
| COc1nc2ccc(Cl)cc2nc1NC(=O)N1CCN(c2cccc(C)c2)CC1 [Compound 29, 1-[(6-Chloro-2-methoxyquinoxalin-3-yl)aminocarbonyl]-4-(3-methylphenyl)piperazine] | 0.16 | 0.3 | 0.95 | – | – | – |
| COc1nc2ccc(Cl)cc2nc1NC(=O)N1CCN(c2cccc(C(F)(F)F)c2)CC1 [Compound 32, 1-[(6-Chloro-2-methoxyquinoxalin-3-yl)aminocarbonyl]-4-(3-trifluorotolyl)piperazine] | – | – | – | – | – | IC50 (MDA-MB-231 (breast); [1]): 1 µM; IC50 (UMRC2 (kidney); [2]): 1 µM; IC50 (PANC-1 (pancreas); [3]): > 1 µM |
| COc1nc2ccc(Cl)cc2nc1NC(=O)N1CCN(c2cccc(Cl)c2)CC1 [Compound 36, 1-[(6-Chloro-2-methoxyquinoxalin-3-yl)aminocarbonyl]-4-(3-chlorophenyl)piperazine] | 0.17 | 0.31 | 0.93 | – | – | – |
| COc1nc2ccc(C)cc2nc1NC(=O)N1CCN(c2cccc(C)c2)CC1 [Compound 50, 1-[(2-Methoxy-6-methylquinoxalin-3-yl)aminocarbonyl]-4-(3-methylphenyl)piperazine] | 0.22 | 0.4 | 1.04 | – | – | – |
| COc1nc2ccc(C)cc2nc1NC(=O)N1CCN(c2cccc(C(F)(F)F)c2)CC1 [Compound 53, 1-[(2-Methoxy-6-methylquinoxalin-3-yl)aminocarbonyl]-4-(3-trifluorotolyl)piperazine] | – | – | – | – | – | IC50 (MDA-MB-231 (breast); [1]): > 1 µM; IC50 (UMRC2 (kidney); [2]): > 1 µM; IC50 (PANC-1 (pancreas); [3]): > 1 µM |
| COc1nc2ccc(C)cc2nc1NC(=O)N1CCN(c2cccc(Cl)c2)CC1 [Compound 57, 1-[(2-Methoxy-6-methylquinoxalin-3-yl)aminocarbonyl]-4-(3-chlorophenyl)piperazine] | 0.14 | 0.24 | 0.64 | – | – | – |
| COc1cccc(N2CCN(C(=O)Nc3nc4cc(OC)ccc4nc3OC)CC2)c1 [Compound 66, 1-[(2,6-Dimethoxyquinoxalin-3-yl)aminocarbonyl]-4-(3-methoxyphenyl)piperazine] | > 1 | > 1 | > 1 | – | – | – |
| COc1ccc2nc(OC)c(NC(=O)N3CCN(c4cccc(C)c4)CC3)nc2c1 [Compound 71, 1-[(2,6-Dimethoxyquinoxalin-3-yl)aminocarbonyl]-4-(3-methylphenyl)piperazine] | 0.4 | 0.63 | 1.43 | – | – | – |
| COc1ccc2nc(OC)c(NC(=O)N3CCN(c4cccc(Cl)c4)CC3)nc2c1 [Compound 78, 1-[(2,6-Dimethoxyquinoxalin-3-yl)aminocarbonyl]-4-(3-chlorophenyl)piperazine] | > 1 | > 1 | > 1 | – | – | – |
| COc1cccc(N2CCN(C(=O)Nc3nc4ccc(F)cc4nc3OC)CC2)c1 [Compound 87, 1-[(6-Fluoro-3-methoxyquinoxalin-2-yl)aminocarbonyl]-4-(3-methoxyphenyl)piperazine] | > 1 | > 1 | > 1 | – | – | – |
| COc1nc2cc(F)ccc2nc1NC(=O)N1CCN(c2cccc(C)c2)CC1 [Compound 92, 1-[(6-Fluoro-3-methoxyquinoxalin-2-yl)aminocarbonyl]-4-(3-methylphenyl)piperazine] | 0.21 | 0.37 | 0.95 | – | – | – |
| COc1nc2cc(F)ccc2nc1NC(=O)N1CCN(c2cccc(C(F)(F)F)c2)CC1 [Compound 95, 1-[(6-Fluoro-3-methoxyquinoxalin-2-yl)aminocarbonyl]-4-(3-trifluorotoly)piperazine] | – | – | – | – | – | IC50 (MDA-MB-231 (breast); [7]): > 1 µM; IC50 (UMRC2 (kidney); [8]): > 1 µM; IC50 (PANC-1 (pancreas); [9]): > 1 µM |
| COc1cccc(N2CCN(C(=O)Nc3nc4ccc(Cl)cc4nc3OC)CC2)c1 [Compound 108, 1-[(6-Chloro-3-methoxyquinoxalin-2-yl)aminocarbonyl]-4-(3-methoxyphenyl)piperazine] | – | – | – | > 1 | > 1 | IC50 (PANC-1 (pancreas); [12]): > 1 µM |
| COc1nc2cc(Cl)ccc2nc1NC(=O)N1CCN(c2cccc(C)c2)CC1 [Compound 113, 1-[(6-Chloro-3-methoxyquinoxalin-2-yl)aminocarbonyl]-4-(3-methylphenyl)piperazine] | – | – | – | 0.3 | 0.4 | IC50 (PANC-1 (pancreas); [12]): 0.61 µM |
| COc1nc2cc(Cl)ccc2nc1NC(=O)N1CCN(c2cccc(C(F)(F)F)c2)CC1 [Compound 116, 1-[(6-Chloro-3-methoxyquinoxalin-2-yl)aminocarbonyl]-4-(3-trifluorotolyl)piperazine] | – | – | – | – | – | IC50 (MDA-MB-231 (breast); [7]): > 1 µM; IC50 (UMRC2 (kidney); [8]): > 1 µM; IC50 (PANC-1 (pancreas); [9]): > 1 µM |
| COc1cccc(N2CCN(C(=O)Nc3nc4ccc(C)cc4nc3OC)CC2)c1 [Compound 129, 1-[(3-Methoxy-6-methylquinoxalin-2-yl)aminocarbonyl]-4-(3-methoxyphenyl)piperazine] | – | – | – | > 1 | > 1 | IC50 (PANC-1 (pancreas); [12]): > 1 µM |
| COc1nc2cc(C)ccc2nc1NC(=O)N1CCN(c2cccc(C)c2)CC1 [Compound 134, 1-[(3-Methoxy-6-methylquinoxalin-2-yl)aminocarbonyl]-4-(3-methylphenyl)piperazine] | – | – | – | 0.26 | 0.26 | – |
| COc1nc2cc(C)ccc2nc1NC(=O)N1CCN(c2cccc(Cl)c2)CC1 [Compound 141, 1-[(3-Methoxy-6-methylquinoxalin-2-yl)aminocarbonyl]-4-(3-chlorophenyl)piperazine] | – | – | – | 0.25 | 0.25 | – |
| COc1cccc(N2CCN(C(=O)Nc3nc4ccc(OC)cc4nc3OC)CC2)c1 [Compound 150, 1-[(3,6-Dimethoxyquinoxalin-2-yl)aminocarbonyl]-4-(3-methoxyphenyl)piperazine] | – | – | – | ≥ 1 | > 1 | IC50 (PANC-1 (pancreas); [12]): > 1 µM |
| COc1ccc2nc(NC(=O)N3CCN(c4cccc(C)c4)CC3)c(OC)nc2c1 [Compound 155, 1-[(3,6-Dimethoxyquinoxalin-2-yl)aminocarbonyl]-4-(3-methylphenyl)piperazine] | – | – | – | 0.23 | 0.39 | IC50 (PANC-1 (pancreas); [12]): 0.96 µM |
| COc1ccc2nc(NC(=O)N3CCN(c4cccc(C(F)(F)F)c4)CC3)c(OC)nc2c1 [Compound 158, 1-[(3,6-Dimethoxyquinoxalin-2-yl)aminocarbonyl]-4-(3-trifluorotoly)piperazine] | – | – | – | – | – | IC50 (MDA-MB-231 (breast); [7]): > 1 µM; IC50 (UMRC2 (kidney); [8]): > 1 µM; IC50 (PANC-1 (pancreas); [9]): > 1 µM |
| COc1ccc2nc(NC(=O)N3CCN(c4cccc(Cl)c4)CC3)c(OC)nc2c1 [Compound 162, 1-[(3,6-Dimethoxyquinoxalin-2-yl)aminocarbonyl]-4-(3-chlorophenyl)piperazine] | – | – | – | 0.23 | 0.29 | IC50 (PANC-1 (pancreas); [12]): 0.46 µM |
| COc1ccc2nc(NC(=O)N3CCN(c4ccccn4)CC3)c(OC)nc2c1 [Compound 167, 1-[(3,6-Dimethoxyquinoxalin-2-yl)aminocarbonyl]-4-(2-pyridyl)piperazine] | – | – | – | > 1 | > 1 | IC50 (PANC-1 (pancreas); [12]): > 1 µM |
